Our source for the AC50 values is ChEMBL document CHEMBL5291721, “A preclinical secondary pharmacology resource illuminates target-adverse drug reaction associations of marketed drugs” (Nat Commun, 2023).

Where only a bound is given, the exact number is not on record here.

One assay addresses T1, Estrogen receptor (Homo sapiens, UniProt P03372).
T1 sequence (P03372 whole entry): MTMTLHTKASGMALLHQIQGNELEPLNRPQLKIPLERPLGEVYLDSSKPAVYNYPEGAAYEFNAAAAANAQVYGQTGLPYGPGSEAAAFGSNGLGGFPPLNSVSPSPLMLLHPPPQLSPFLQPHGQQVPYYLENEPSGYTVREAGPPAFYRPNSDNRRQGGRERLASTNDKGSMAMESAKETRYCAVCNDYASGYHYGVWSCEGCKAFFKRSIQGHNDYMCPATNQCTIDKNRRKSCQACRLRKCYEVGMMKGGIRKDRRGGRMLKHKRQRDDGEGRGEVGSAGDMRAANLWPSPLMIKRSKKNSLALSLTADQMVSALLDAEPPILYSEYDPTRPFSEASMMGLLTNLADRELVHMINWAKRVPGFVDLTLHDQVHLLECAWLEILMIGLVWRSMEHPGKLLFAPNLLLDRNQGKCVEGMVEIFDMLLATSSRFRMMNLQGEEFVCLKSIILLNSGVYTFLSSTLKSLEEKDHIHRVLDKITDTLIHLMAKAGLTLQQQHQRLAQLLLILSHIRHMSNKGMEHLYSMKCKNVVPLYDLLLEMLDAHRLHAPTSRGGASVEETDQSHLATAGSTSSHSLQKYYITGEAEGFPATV
In kind it is functional.

Another assay deals with T2, Glucocorticoid receptor (Homo sapiens, UniProt P04150).
T2 sequence (P04150 whole entry): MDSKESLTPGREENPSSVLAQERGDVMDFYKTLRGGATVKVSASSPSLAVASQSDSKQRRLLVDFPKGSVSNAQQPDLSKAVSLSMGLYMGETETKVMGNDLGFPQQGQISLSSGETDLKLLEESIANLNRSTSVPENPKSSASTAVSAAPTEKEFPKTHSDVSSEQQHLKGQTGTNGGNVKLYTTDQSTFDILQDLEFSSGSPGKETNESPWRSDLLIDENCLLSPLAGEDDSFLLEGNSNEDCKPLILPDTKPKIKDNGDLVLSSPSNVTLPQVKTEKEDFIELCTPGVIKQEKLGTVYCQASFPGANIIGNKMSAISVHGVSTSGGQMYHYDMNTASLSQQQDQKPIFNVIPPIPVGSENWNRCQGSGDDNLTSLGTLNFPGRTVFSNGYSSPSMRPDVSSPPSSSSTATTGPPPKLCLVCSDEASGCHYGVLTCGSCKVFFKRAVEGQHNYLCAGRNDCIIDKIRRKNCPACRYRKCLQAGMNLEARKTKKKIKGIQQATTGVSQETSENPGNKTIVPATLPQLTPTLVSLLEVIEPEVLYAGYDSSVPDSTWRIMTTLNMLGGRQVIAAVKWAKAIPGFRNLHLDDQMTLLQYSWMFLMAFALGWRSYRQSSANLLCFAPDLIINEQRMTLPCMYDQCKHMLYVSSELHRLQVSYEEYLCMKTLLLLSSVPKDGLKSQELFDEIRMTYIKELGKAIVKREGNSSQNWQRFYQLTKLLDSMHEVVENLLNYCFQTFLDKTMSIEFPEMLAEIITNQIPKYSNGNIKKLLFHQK
In kind it is functional.
Also: assay procedure not described here.

In general, AC50 refers to the midpoint of the concentration-response curve, whichever way the signal moves. As to `[H]/N=C(/N)c1ccc(NCc2nc3cc(C(=O)N(CCC(=O)O)c4ccccn4)ccc3n2C)cc1` [DABIGATRAN], the AC50 on Estrogen receptor and on Glucocorticoid receptor was over 30 µM each time.
